# Source: patent US9068081B2, “Thiophene azo dyes and laundry care compositions containing the same” (MILLIKEN & COMPANY, priority 2010, dated 2015)
# Assay: Aqueous partition value of a dye (water/1-octanol partitioning)
# Assay type: physicochemical
# Conditions: deionized water / 1-octanol 10.0 mL each, absorbance at dye λmax, (Af/Ai)×100%
# Procedure: Dissolve in deionized water to a final volume of 10.0 mL an amount of dye sufficient to provide a solution absorbance value between 0.25 and 1.0, said absorbance being determined at the dye λmax between 400 nm and 750 nm, using a cuvette with 1.0 cm path length. Measure the absorbance of the sample at the dye λmax in a UV/Vis spectrophotometer, then transfer the entire 10.0 mL solution to a 50.0 mL plastic centrifuge tube. Add 10.0 mL of 1-octanol, cap the tube, and mix vigorously for 30 seconds using a Vortex™ mixer. Leave the tube standing undisturbed until the layers cleanly phase separate.
# Using a transfer pipette, withdraw an aliquot of the aqueous (bottom) layer and transfer it to a cuvette with 1.0 cm path length for spectrophotometric analysis. Analyze the solution as before, and quantify the absorbance loss at λmax as “% of Dye Remaining in Aqueous Layer” as detailed below: % of Dye Remaining in Aqueous Layer=Aqueous Partition Value (APV)=(Af/Ai)×100% wherein Ai is the initial solution absorbance at λmax and Af is the final solution absorbance at λmax. II. Method for Determining Hueing Efficiency for Detergents • a.) Two 25 cm×25 cm fabric swatches of 16 oz white cotton interlock knit fabric (270 g/square meter, brightened with Uvitex BNB fluorescent whitening agent, from Test Fabrics. P.O. Box 26, Weston, Pa., 18643) are obtained. • b.) Prepare two one liter aliquots of tap water containing 1.55 g of AATCC standard heavy duty liquid (HDL) test detergent. • c.) Add a sufficient amount the dye to be tested to one of the aliquots from Step b.) above to produce an aqueous solution absorbance of 1 AU. • d.) Wash one swatch from a.) above in one of the aliquots of water containing 1.55 g of AATCC standard heavy duty liquid (HDL) test detergent and wash the other swatch in the other aliquot. Such washing step should be conducted for 30 minutes at room temperature with agitation. After such washing step separately rinse the swatches in tap water and air dry the swatches in the dark. • e.) After rinsing and drying each swatch, the hueing efficiency, DE*eff, of the dye is assessed by determining the L*, a*, and b* value measurements of each swatch using a Hunter LabScan XE reflectance spectrophotometer with D65 illumination, 10° observer and UV filter excluded. The hueing efficiency of the dye is then calculated using the following equation: DE*eff=((L*c−Ls)^2+(a*c−a*s)^2+(b*c−b*s)^2)^1/2 • wherein the subscripts c and s respectively refer to the L*, a*, and b* values measured for the control, i.e., the fabric sample washed in detergent with no dye, and the fabric sample washed in detergent containing the dye to be screened. III. Method for Determining Wash Removability • a.) Prepare two separate 150 ml aliquots of HDL detergent solution, according to AATCC Test Method 61-2003, Test 2A and containing 1.55 g/liter of the AATCC HDL formula in distilled water. • b.) A 15 cm×5 cm sample of each fabric swatch from the Method for Determining of Hueing Efficiency For Detergents described above is washed in a Launderometer for 45 minutes at 49° C. in 150 ml of a the HDL detergent solution prepared according to Step 11. a.) above. • c.) The samples are rinsed with separate aliquots of rinse water and air dried in the dark, and then L*, a*, and b* value measurements of each swatch are taken using a Hunter LabScan XE reflectance spectrophotometer with D65 illumination, 10° observer and UV filter excluded. The amount of residual coloration is assessed by measuring the DE*res, calculated using the following equation: DE*res=((L*c−L*s)^2+(a*c−a*s)^2+(b*c−b*s)^2)^1/2 • wherein the subscripts c and s respectively refer to the L*, a*, and b* values measured for the control, i.e., the fabric sample initially washed in detergent with no dye, and the fabric sample initially washed in detergent containing the dye to be screened. The wash removal value for the dye is then calculated according to the formula: % removal=100×(1−DE*res/DE*eff) C. Test Results […]
row,SMILES,% Dye in Water Layer (Aqueous Partition Value)
1,COc1cc(/N=N/c2sc(C#N)c(C)c2C#N)c(C)cc1N(CCn1cc[n+](C)c1)CCn1cc[n+](C)c1 [Example 1],97%
2,COc1cc(/N=N/c2sc(C#N)c(C)c2C#N)c(C)cc1N(CCOCCOCC[N+](CCO)(CCO)CCO)CCOCC[N+](CCO)(CCO)CCO [Example 22],56%
3,CC[N+](CC)(CC)CCOCCOCCN(CCOCC[N+](CC)(CC)CC)c1ccc(/N=N/c2sc(C#N)c(C)c2C#N)c(C)c1 [Example 35],66%
4,CC[N+](CC)(CC)CCN(CC[N+](CC)(CC)CC)c1ccc(/N=N/c2sc(C#N)c(C)c2C#N)c(C)c1 [Example 36],94%
5,CC[N+](CC)(CC)CCOCCOCCN(CCOCC[N+](CC)(CC)CC)c1cc(OC)c(/N=N/c2sc(C#N)c(C)c2C#N)cc1OC [Example 19],78%
6,CCN(CC[N+](CC)(CC)CC)c1ccc(/N=N/c2sc(C#N)c(C)c2C#N)c(C)c1 [Example 7],15%
7,COc1cc(/N=N/c2sc(C#N)c(C)c2C#N)c(C)cc1N(CCOCCOCC[N+](C)(C)CCO)CCOCC[N+](C)(C)CCO [Example 21],75%
8,CC[N+](CC)(CC)CCOCCOCCN(CCOCC[N+](CC)(CC)CC)c1cc(C)c(/N=N/c2sc(C#N)c(C)c2C#N)cc1OC [Example 18],49%
9,Cc1cc(N(CCn2cc[n+](C)c2)CCn2cc[n+](C)c2)ccc1/N=N/c1sc(C#N)c(C)c1C#N [Example 2],83%
10,CCN(CCOCCOCCOCCOCC[N+](CC)(CC)CC)c1ccc(/N=N/c2sc(C#N)c(C)c2C#N)c(C)c1 [Example 12],15%
11,CCN(CCOCCOCCOCCOCCn1cc[n+](C)c1)c1ccc(/N=N/c2sc(C#N)c(C)c2C#N)c(C)c1 [Example 13],20%
